Reference: PubChem BioAssay AID256 (DTP/NCI, 2004)
Inconclusive results and toxic doses are left out. The calls were made as follows: active = survival T/C of 150% or more; inactive = T/C below 125% in these data.

Test system: CD2F1 mice, L1210 leukemia ip, survival T/C
Test: NCI In Vivo Anticancer Drug Screen. Data for tumor model L1210 Leukemia (intraperitoneal) in CD2F1 (CDF1) mice
Conditions: higher = longer survival
Outline: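 Antitumor effect is scored in animals hosting a serially transplanted tumor. Values compare compound-dosed animals against vehicle-only controls as a simple quotient.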

[1] = endpoint: mean survival time, dose: 100.0 mg/kg/injection, schedule: Q01DX009 (ip), vehicle: saline with Tween-80
[2] = endpoint: mean survival time, dose: 100.0 mg/kg/injection, schedule: Q04DX003 (ip), vehicle: saline with Tween-80
[3] = endpoint: mean survival time, dose: 200.0 mg/kg/injection, schedule: Q01DX009 (ip), vehicle: saline with Tween-80
[4] = endpoint: mean survival time, dose: 200.0 mg/kg/injection, schedule: Q04DX003 (ip), vehicle: saline with Tween-80
[5] = endpoint: mean survival time, dose: 400.0 mg/kg/injection, schedule: Q04DX003 (ip), vehicle: saline with Tween-80
[6] = endpoint: mean survival time, dose: 100.0 mg/kg/injection, schedule: Q04DX002 (ip), vehicle: saline with Tween-80
[7] = endpoint: mean survival time, dose: 200.0 mg/kg/injection, schedule: Q04DX002 (ip), vehicle: saline with Tween-80
[8] = endpoint: mean survival time, dose: 400.0 mg/kg/injection, schedule: Q04DX002 (ip), vehicle: saline with Tween-80
[9] = endpoint: mean survival time, dose: 12.5 mg/kg/injection, schedule: Q04DX003 (ip), vehicle: saline
[10] = endpoint: mean survival time, dose: 25.0 mg/kg/injection, schedule: Q04DX003 (ip), vehicle: saline
[11] = endpoint: mean survival time, dose: 50.0 mg/kg/injection, schedule: Q04DX003 (ip), vehicle: saline
[12] = endpoint: mean survival time, dose: 75.0 mg/kg/injection, schedule: Q01DX001 (ip), vehicle: saline
[13] = endpoint: mean survival time, dose: 100.0 mg/kg/injection, schedule: Q04DX003 (ip), vehicle: saline
[14] = endpoint: mean survival time, dose: 200.0 mg/kg/injection, schedule: Q04DX003 (ip), vehicle: saline

Measured: T/C

O=C(c1ccc(Cl)cc1)c1no[n+]([O-])c1C(=O)c1ccc(Cl)cc1
inactive: [1] 94 % of control | [2] 107 % of control | [3] 100 % of control | [4] 95 % of control | endpoint: mean survival time, dose: 400.0 mg/kg/injection, schedule: Q01DX009 (ip), vehicle: saline with Tween-80 94 % of control | [5] 95 % of control

CCCCCCCCCCCCOc1ccc(F)cc1C
inactive: [6] 93 % of control | [7] 93 % of control | [8] 96 % of control

CNc1ncnc2c(C3OC(CO)C(O)C3O)[nH]nc12 (stereo not drawn)
inactive: endpoint: mean survival time, dose: 25.0 mg/kg/injection, schedule: Q01DX005 (ip), vehicle: water 108 % of control | endpoint: mean survival time, dose: 50.0 mg/kg/injection, schedule: Q01DX005 (ip), vehicle: water 120 % of control | endpoint: mean survival time, dose: 100.0 mg/kg/injection, schedule: Q01DX005 (ip), vehicle: water 96 % of control

C1CCC(CCC2CCCC[N-]2)[N-]C1.C1CCC(CCC2CCCC[N-]2)[N-]C1.[Ni+2].[O-][Cl+3]([O-])([O-])O (stereo not drawn)
inactive: endpoint: mean survival time, dose: 5.0 mg/kg/injection, schedule: Q01DX009 (ip), vehicle: saline 103 % of control | endpoint: mean survival time, dose: 10.0 mg/kg/injection, schedule: Q01DX009 (ip), vehicle: saline 104 % of control | endpoint: mean survival time, dose: 12.5 mg/kg/injection, schedule: Q01DX001 (ip), vehicle: saline with Tween-80 90 % of control | endpoint: mean survival time, dose: 12.5 mg/kg/injection, schedule: Q04DX002 (ip), vehicle: saline 95 % of control | [9] 104 % of control | endpoint: mean survival time, dose: 20.0 mg/kg/injection, schedule: Q01DX009 (ip), vehicle: saline 103 % of control | endpoint: mean survival time, dose: 25.0 mg/kg/injection, schedule: Q01DX001 (ip), vehicle: saline 102 % of control | endpoint: mean survival time, dose: 25.0 mg/kg/injection, schedule: Q04DX002 (ip), vehicle: saline 98 % of control | [10] 108 % of control | endpoint: mean survival time, dose: 40.0 mg/kg/injection, schedule: Q01DX009 (ip), vehicle: saline 109 % of control | endpoint: mean survival time, dose: 50.0 mg/kg/injection, schedule: Q01DX001 (ip), vehicle: saline 102 % of control | endpoint: mean survival time, dose: 50.0 mg/kg/injection, schedule: Q04DX002 (ip), vehicle: saline 98 % of control | [11] 102 % of control | [12] 101 % of control | endpoint: mean survival time, dose: 100.0 mg/kg/injection, schedule: Q01DX001 (ip), vehicle: saline 102 % of control | endpoint: mean survival time, dose: 100.0 mg/kg/injection, schedule: Q04DX002 (ip), vehicle: saline 102 % of control | [13] 104 % of control

CC(CCOc1ccc(Cl)cc1Cl)C(=O)O (stereo not drawn)
inactive: [6] 104 % of control | [7] 86 % of control

CCC(CC)C(=O)OCCCCOC(=O)C(CC)CC
inactive: [13] 93 % of control | [14] 107 % of control | endpoint: mean survival time, dose: 400.0 mg/kg/injection, schedule: Q04DX003 (ip), vehicle: saline 107 % of control

C/C=C/CC1CCCCC1C (stereo not drawn)
inactive: endpoint: mean survival time, dose: 50.0 mg/kg/injection, schedule: Q01DX009 (ip), vehicle: saline with Tween-80 96 % of control | [1] 96 % of control | [3] 108 % of control

Cn1sc2ccccc2c1=S
inactive: [2] 101 % of control | [4] 96 % of control | [5] 95 % of control

CCSC#N
inactive: endpoint: mean survival time, dose: 2.5 mg/kg/injection, schedule: Q01DX009 (ip), vehicle: Klucel (hydroxypropylcellulose) (HPC) 98 % of control | endpoint: mean survival time, dose: 5.0 mg/kg/injection, schedule: Q01DX009 (ip), vehicle: Klucel (hydroxypropylcellulose) (HPC) 102 % of control | endpoint: mean survival time, dose: 10.0 mg/kg/injection, schedule: Q01DX009 (ip), vehicle: Klucel (hydroxypropylcellulose) (HPC) 102 % of control

CCNC(=O)[B-][N+](C)(C)C
inactive: endpoint: median survival time, dose: 12.5 mg/kg/injection, schedule: Q01DX009 (ip), vehicle: Klucel (hydroxypropylcellulose) (HPC) 108 % of control | endpoint: median survival time, dose: 25.0 mg/kg/injection, schedule: Q01DX009 (ip), vehicle: Klucel (hydroxypropylcellulose) (HPC) 106 % of control | endpoint: median survival time, dose: 50.0 mg/kg/injection, schedule: Q01DX009 (ip), vehicle: Klucel (hydroxypropylcellulose) (HPC) 106 % of control | endpoint: median survival time, dose: 100.0 mg/kg/injection, schedule: Q01DX009 (ip), vehicle: Klucel (hydroxypropylcellulose) (HPC) 107 % of control | endpoint: median survival time, dose: 200.0 mg/kg/injection, schedule: Q01DX009 (ip), vehicle: Klucel (hydroxypropylcellulose) (HPC) 106 % of control

CN(C)C=Nc1ccc([N+](=O)[O-])c2ccccc12
inactive: endpoint: mean survival time, dose: 100.0 mg/kg/injection, schedule: Q01DX009 (ip), vehicle: other 105 % of control | endpoint: mean survival time, dose: 200.0 mg/kg/injection, schedule: Q01DX009 (ip), vehicle: other 103 % of control | endpoint: mean survival time, dose: 400.0 mg/kg/injection, schedule: Q01DX009 (ip), vehicle: other 96 % of control

COC1c2cc3ccccc3nc2-c2ccccc2C1(C)C (stereo not drawn)
inactive: endpoint: mean survival time, dose: 12.5 mg/kg/injection, schedule: Q01DX009 (ip), vehicle: water 96 % of control | endpoint: mean survival time, dose: 25.0 mg/kg/injection, schedule: Q01DX009 (ip), vehicle: water 96 % of control | endpoint: mean survival time, dose: 50.0 mg/kg/injection, schedule: Q01DX009 (ip), vehicle: water 91 % of control | endpoint: mean survival time, dose: 100.0 mg/kg/injection, schedule: Q01DX009 (ip), vehicle: water 91 % of control | endpoint: mean survival time, dose: 200.0 mg/kg/injection, schedule: Q01DX009 (ip), vehicle: water 90 % of control

O=NN1CCCCCC1=O
inactive: [12] 108 % of control | endpoint: mean survival time, dose: 150.0 mg/kg/injection, schedule: Q01DX001 (ip), vehicle: saline 110 % of control | endpoint: mean survival time, dose: 300.0 mg/kg/injection, schedule: Q01DX001 (ip), vehicle: saline 120 % of control

CSc1ccc(OC(=O)C(C)NC(=O)C(CO)NC(=O)OCc2ccccc2)cc1 (stereo not drawn)
inactive: endpoint: mean survival time, dose: 50.0 mg/kg/injection, schedule: Q04DX002 (ip), vehicle: saline with Tween-80 95 % of control | [6] 92 % of control | [7] 95 % of control | [8] 92 % of control

OC(CC(O)(C(F)(F)F)C(F)(F)F)c1cccc(C(F)(F)F)c1 (stereo not drawn)
inactive: endpoint: mean survival time, dose: 132.0 mg/kg/injection, schedule: Q04DX003 (ip), vehicle: other 98 % of control | endpoint: mean survival time, dose: 200.0 mg/kg/injection, schedule: Q04DX003 (ip), vehicle: other 94 % of control | endpoint: mean survival time, dose: 300.0 mg/kg/injection, schedule: Q04DX003 (ip), vehicle: other 93 % of control

Cc1cc(C)[nH]c(=S)n1.[Pd]
inactive: endpoint: mean survival time, dose: 3.12 mg/kg/injection, schedule: Q04DX003 (ip), vehicle: saline 97 % of control | endpoint: mean survival time, dose: 6.25 mg/kg/injection, schedule: Q04DX003 (ip), vehicle: saline 102 % of control | [9] 100 % of control | [10] 103 % of control | [11] 102 % of control | [13] 105 % of control | [14] 102 % of control
